Experiment [1] has as its target Serine/threonine-protein kinase pim-2 (Homo sapiens, UniProt Q9P1W9). Description: Competitive inhibition of PIM2 in presence of ATP.
The target of experiment [2] is Serine/threonine-protein kinase pim-1 (Homo sapiens, UniProt P11309). Nature of the experiment: Competitive inhibition of PIM1 using KKRNRTLTV as substrate after 5 mins by scintillation counter in presence of [gamma-32P]ATP.
Experiment [3] deals with Casein kinase II subunit alpha (Homo sapiens, UniProt P68400). Description: Competitive inhibition of CK2alpha using RRREDEESDDEE as substrate after 5 mins by scintillation counter in presence of [gamma-32P]ATP.
The target in experiment [4] is T1, Serine/threonine-protein kinase haspin (Homo sapiens, UniProt Q8TF76).
T1 sequence (Q8TF76 whole entry): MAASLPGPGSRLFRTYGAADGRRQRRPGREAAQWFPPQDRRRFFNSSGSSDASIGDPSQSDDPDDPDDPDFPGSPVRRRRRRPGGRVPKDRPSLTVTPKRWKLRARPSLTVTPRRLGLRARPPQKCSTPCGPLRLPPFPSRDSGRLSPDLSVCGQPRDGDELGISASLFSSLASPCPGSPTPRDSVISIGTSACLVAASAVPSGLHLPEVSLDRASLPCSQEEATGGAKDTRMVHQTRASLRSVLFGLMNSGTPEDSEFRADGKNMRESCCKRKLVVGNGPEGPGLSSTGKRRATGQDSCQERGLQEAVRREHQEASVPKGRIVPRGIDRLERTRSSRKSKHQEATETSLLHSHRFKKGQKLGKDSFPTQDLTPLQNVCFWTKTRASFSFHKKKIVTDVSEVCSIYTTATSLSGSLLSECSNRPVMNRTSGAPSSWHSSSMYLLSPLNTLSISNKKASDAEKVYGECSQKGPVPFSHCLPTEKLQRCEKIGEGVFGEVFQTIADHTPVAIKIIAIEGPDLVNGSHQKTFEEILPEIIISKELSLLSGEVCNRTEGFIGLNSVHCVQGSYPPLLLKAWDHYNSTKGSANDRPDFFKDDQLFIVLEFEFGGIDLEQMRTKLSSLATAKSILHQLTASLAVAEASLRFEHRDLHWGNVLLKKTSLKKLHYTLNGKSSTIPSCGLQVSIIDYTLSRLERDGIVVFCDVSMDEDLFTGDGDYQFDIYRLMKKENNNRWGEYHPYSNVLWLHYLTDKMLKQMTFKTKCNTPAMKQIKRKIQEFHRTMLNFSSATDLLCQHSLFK
Nature of the experiment: Inhibition of haspin.

Results on three compounds are retold here after ChEMBL document CHEMBL2176972, “Potential use of selective and nonselective Pim kinase inhibitors for cancer therapy” (J Med Chem, 2012).

Turning to `O=C1NC(=O)/C(=C/c2cccc(C(F)(F)F)c2)S1`, the Ki in experiment [1] came to 100 nM. `O=C(O)c1cc2c(ccc3cc4c(ccc5oc(C(=O)O)cc54)cc32)o1`: the IC50 in experiment [2] came to 20 nM; in experiment [3] it was 63 nM. Take `CN1CCC(CNc2ccc3ncc(-c4cccc(OC(F)(F)F)c4)n3n2)CC1` [SGI-1776]: 34 nM corresponded to half-maximal inhibition in experiment [4] (IC50).

For orientation: Ki means a dissociation constant, usually derived from enzyme kinetics or from competition with a known ligand. In general, IC50 refers to the point on the concentration scale where inhibition reaches its midpoint.
